Data: patent US8481540B2, “Inhibitors of bruton's tyrosine kinase” (Hoffmann-La Roche Inc., priority 2010, dated 2013)
Like-named read-outs stand apart in the source and are kept apart here.

Experiments:
B cells in human blood = experiment: Inhibition of B cell activation in whole blood measured by CD69 expression; type: cell-based; conditions: read-out: Human Whole Blood
Summary of the method: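 Heparinised human whole blood was preincubated with compound (nine-point, three-fold dilutions) for 30 min at 37 °C. It was then stimulated with 50 μg/ml goat F(ab′)2 anti-human IgM for 20 hours. CD20/CD69 staining, red-cell lysis and flow cytometry gave percent CD69-positive cells, from which IC50 values were calculated.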

[1] = CD69-positive, CD20-positive cells after anti-IgM stimulation, human whole blood, 20 hours

Structure (SMILES) | IC50 (B cells in human blood; [1]) [µM] | melting point [°C] | IC50 (B cells in human blood; Homo sapiens, 20 h) [µM]
CCNC(C)(C)c1ccc(Nc2cc(-c3cccc(-n4ncc5cc(C(C)(C)C)cc(F)c5c4=O)c3CO)nn(C)c2=O)nc1 [I-1, 6-tert-butyl-2-(3-{5-[5-(1-ethylamino-1-methyl-ethyl)-pyridin-2-ylamino]-1-methyl-6-oxo-1,6-dihydro-pyridazin-3-yl}-2-hydroxymethyl-phenyl)-8-fluoro-2H-phthalazin-1-one] | 0.019 | 229 to 233 | –
Cn1nc(-c2cccc(-n3ncc4cc(C(C)(C)C)cc(F)c4c3=O)c2CO)cc(Nc2ccc(S(C)(=O)=O)cn2)c1=O [I-3, 6-tert-Butyl-8-fluoro-2-[2-hydroxymethyl-3-[5-(5-methanesulfonyl-pyridin-2-ylamino)-1-methyl-6-oxo-1,6-dihydro-pyridazin-3-yl]-phenyl}-2H-phthalazin-1-one] | – | 225 to 230 | 0.045
CN1[C@@H]2CC[C@H]1CN(Cc1ccc(Nc3cc(-c4cccc(-n5ncc6cc(C(C)(C)C)cc(F)c6c5=O)c4CO)nn(C)c3=O)nc1)C2 [I-5, 6-tert-Butyl-8-fluoro-2-(2-hydroxymethyl-3-{1-methyl-5-[5-(8-methyl-3,8-diaza-bicyclo[3.2.1]oct-3-ylmethyl)-pyridin-2-ylamino]-6-oxo-1,6-dihydro-pyridazin-3-yl}-phenyl)-2H-phthalazin-1-one] | 0.025 | 162 to 165 | –
CN(C)CC(C)(C)Oc1ccc(Nc2cc(-c3cccc(-n4ncc5cc(C(C)(C)C)cc(F)c5c4=O)c3CO)nn(C)c2=O)nc1 [I-6, 6-tert-Butyl-2-(3-{5-[5-(2-dimethylamino-1,1-dimethyl-ethoxy)-pyridin-2-ylamino]-1-methyl-6-oxo-1,6-dihydro-pyridazin-3-yl}-2-hydroxymethyl-phenyl)-8-fluoro-2H-phthalazin-1-one] | 0.031 | 136 to 144 | –
Cn1nc(-c2cccc(-n3ncc4cc(C(C)(C)C)cc(F)c4c3=O)c2CO)cc(Nc2ccc(CN3CCC3)cn2)c1=O [I-7, 2-{3-[5-(5-Azetidin-1-ylmethyl-pyridin-2-ylamino)-1-methyl-6-oxo-1,6-dihydro-pyridazin-3-yl]-2-hydroxymethyl-phenyl}-6-tert-butyl-8-fluoro-2H-phthalazin-1-one] | 0.02 | 160 to 163 | –
CN(C)Cc1ccc(Nc2cc(-c3cccc(-n4ncc5cc(C(C)(C)C)cc(F)c5c4=O)c3CO)nn(C)c2=O)nc1 [I-8, 6-tert-Butyl-2-{3-[5-(5-dimethylaminomethyl-pyridin-2-ylamino)-1-methyl-6-oxo-1,6-dihydro-pyridazin-3-yl]-2-hydroxymethyl-phenyl}-8-fluoro-2H-phthalazin-1-one] | 0.02 | 170 to 174 | –
CN(C)CC(C)(C)Oc1cnc(Nc2cc(-c3cccc(-n4ncc5cc(C(C)(C)C)cc(F)c5c4=O)c3CO)nn(C)c2=O)cn1 [I-38, 6-tert-Butyl-2-(3-{5-[5-(2-dimethylamino-1,1-dimethyl-ethoxy)-pyrazin-2-ylamino]-1-methyl-6-oxo-1,6-dihydro-pyridazin-3-yl}-2-hydroxymethyl-phenyl)-8-fluoro-2H-phthalazin-1-one] | 0.012 | 235 to 240 | –
Cn1nc(-c2cccc(-n3ncc4cc(C(C)(C)C)cc(F)c4c3=O)c2CO)cc(Nc2ccc(C3CCN(C4COC4)CC3)cn2)c1=O [I-80, 6-tert-Butyl-8-fluoro-2-{2-hydroxymethyl-3-[1-methyl-5-(1′-oxetan-3-yl-1′,2′,3′,4′,5′,6′-hexahydro-[3,4]bipyridinyl-6-ylamino)-6-oxo-1,6-dihydro-pyridazin-3-yl]-phenyl}-2H-phthalazin-1-one] | 0.041 | – | –
CCN1CCn2nc(Nc3cc(-c4cccc(-n5ncc6cc(C(C)(C)C)cc(F)c6c5=O)c4CO)nn(C)c3=O)cc2C1 [I-82, 6-tert-Butyl-2-{3-[5-(5-ethyl-4,5,6,7-tetrahydro-pyrazolo[1,5-a]pyrazin-2-ylamino)-1-methyl-6-oxo-1,6-dihydro-pyridazin-3-yl]-2-hydroxymethyl-phenyl}-8-fluoro-2H-phthalazin-1-one] | 0.017 | – | –
CCN1CCn2nc(Nc3cc(-c4cccc(-n5ccc6cc(C(C)(C)C#N)cc(F)c6c5=O)c4CO)nn(C)c3=O)cc2C1 [I-83, 2-(2-{3-[5-(5-Ethyl-4,5,6,7-tetrahydro-pyrazolo[1,5-a]pyrazin-2-ylamino)-1-methyl-6-oxo-1,6-dihydro-pyridazin-3-yl]-2-hydroxymethyl-phenyl}-8-fluoro-1-oxo-1,2-dihydro-isoquinolin-6-yl)-2-methyl-propionitrile] | 0.07 | – | –
Cn1nc(-c2cccc(-n3ncc4cc(C(C)(C)C)cc(F)c4c3=O)c2CO)cc(Nc2ccc(CN3CCC(C)(O)CC3)cn2)c1=O [I-85, 6-tert-Butyl-8-fluoro-2-(2-hydroxymethyl-3-{5-[5-(4-hydroxy-4-methyl-piperidin-1-ylmethyl)-pyridin-2-ylamino]-1-methyl-6-oxo-1,6-dihydro-pyridazin-3-yl}-phenyl)-2H-phthalazin-1-one] | 0.294 | – | –
CCOC(=O)N1CCN(c2ccc(Nc3cc(-c4cccc(-n5ncc6cc(C(C)(C)C)cc(F)c6c5=O)c4CO)nn(C)c3=O)nc2)CC1 [I-86, 4-(6-{6-[3-(6-tert-Butyl-8-fluoro-1-oxo-1H-phthalazin-2-yl)-2-hydroxymethyl-phenyl]-2-methyl-3-oxo-2,3-dihydro-pyridazin-4-ylamino}-pyridin-3-yl)-piperazine-1-carboxylic acid ethyl ester] | 0.408 | – | –
Cn1nc(-c2cccc(-n3ccc4cc(C(C)(C)CF)cc(F)c4c3=O)c2CO)cc(Nc2ccc(C(=O)N3CCOCC3)cn2)c1=O [I-87, 8-Fluoro-6-(2-fluoro-1,1-dimethyl-ethyl)-2-(2-hydroxymethyl-3-{1-methyl-5-[5-(morpholine-4-carbonyl)-pyridin-2-ylamino]-6-oxo-1,6-dihydro-pyridazin-3-yl}-phenyl)-2H-isoquinolin-1-one] | 0.455 | – | –
Cn1nc(-c2cccc(-n3ncc4cc(C(C)(C)C)cc(F)c4c3=O)c2CO)cc(Nc2ccc(C3CCN(CC(F)(F)F)CC3)cn2)c1=O [I-90, 6-tert-butyl-8-fluoro-2-(2-hydroxymethyl-3-{1-methyl-6-oxo-5-[1′-(2,2,2-trifluoro-ethyl)-1′,2′,3′,4′,5′,6′-hexahydro-[3,4′]bipyridinyl-6-ylamino]-1,6-dihydro-pyridazin-3-yl}-phenyl)-2H-phthalazin-1-one] | 0.34 | – | –

Continued, in another order:

IC50 (B cells in human blood; [1]) [µM] | melting point [°C] | Structure (SMILES) | IC50 (B cells in human blood; Homo sapiens, 20 h) [µM]
0.122 | 140 to 142 | COC1CN(Cc2ccc(Nc3cc(-c4cccc(-n5ncc6cc(C(C)(C)C)cc(F)c6c5=O)c4CO)nn(C)c3=O)nc2)C1 [I-4, 6-tert-Butyl-8-fluoro-2-(2-hydroxymethyl-3-{5-[5-(3-methoxy-azetidin-1-ylmethyl)-pyridin-2-ylamino]-1-methyl-6-oxo-1,6-dihydro-pyridazin-3-yl}-phenyl)-2H-phthalazin-1-one] | –
– | 250 to 254 | Cn1nc(-c2cccc(-n3ncc4cc(C(C)(C)C)cc(F)c4c3=O)c2CO)cc(Nc2cnc(C(F)(F)F)cn2)c1=O [I-11, 6-tert-butyl-8-fluoro-2-{2-hydroxymethyl-3-[1-methyl-6-oxo-5-(5-trifluoromethyl-pyrazin-2-ylamino)-1,6-dihydro-pyridazin-3-yl]-phenyl}-2H-phthalazin-1-one] | –
0.125 | 235 to 240 | CN1CCN(c2cnc(Nc3cc(-c4cccc(-n5ncc6cc(C(C)(C)C)cc(F)c6c5=O)c4CO)nn(C)c3=O)cn2)CC1 [I-34, 6-tert-Butyl-8-fluoro-2-{2-hydroxymethyl-3-[1-methyl-5-(4-methyl-3,4,5,6-tetrahydro-2H-[1,2′]bipyrazinyl-5′-ylamino)-6-oxo-1,6-dihydro-pyridazin-3-yl]-phenyl}-2H-phthalazin-1-one] | –
0.074 | 163 to 167 | Cn1nc(-c2cccc(-n3ncc4cc(C(C)(C)C)cc(F)c4c3=O)c2CO)cc(Nc2cnc(CNC3CCC3)cn2)c1=O [I-35, 6-tert-Butyl-2-{3-[5-(5-cyclobutylaminomethyl-pyrazin-2-ylamino)-1-methyl-6-oxo-1,6-dihydro-pyridazin-3-yl]-2-hydroxymethyl-phenyl}-8-fluoro-2H-phthalazin-1-one] | –
– | 185 to 190 | CN(C)CCOc1cnc(Nc2cc(-c3cccc(-n4ncc5cc(C(C)(C)C)cc(F)c5c4=O)c3CO)nn(C)c2=O)cn1 [I-36, 6-tert-Butyl-2-(3-{5-[5-(2-dimethylamino-ethoxy)-pyrazin-2-ylamino]-1-methyl-6-oxo-1,6-dihydro-pyridazin-3-yl}-2-hydroxymethyl-phenyl)-8-fluoro-2H-phthalazin-1-one] | –
0.084 | 215 to 218 | CN1CCN(Cc2cnc(Nc3cc(-c4cccc(-n5ncc6cc(C(C)(C)C)cc(F)c6c5=O)c4CO)nn(C)c3=O)cn2)CC1 [I-37, 6-tert-Butyl-8-fluoro-2-(2-hydroxymethyl-3-{1-methyl-5-[5-(4-methyl-piperazin-1-ylmethyl)-pyrazin-2-ylamino]-6-oxo-1,6-dihydro-pyridazin-3-yl}-phenyl)-2H-phthalazin-1-one] | –
– | 218 to 224 | Cn1nc(-c2cccc(-n3ncc4cc(C(C)(C)C)cc(F)c4c3=O)c2CO)cc(Nc2cnc([C@H](O)CO)cn2)c1=O [I-57, 6-tert-Butyl-2-(3-{5-[5-((S)-1,2-dihydroxy-ethyl)-pyrazin-2-ylamino]-1-methyl-6-oxo-1,6-dihydro-pyridazin-3-yl}-2-hydroxymethyl-phenyl)-8-fluoro-2H-phthalazin-1-one] | –
0.203 | – | CN1C[C@@H]2C[C@H]1CN2c1cnc(Nc2cc(-c3cccc(-n4ncc5cc(C(C)(C)C)cc(F)c5c4=O)c3CO)nn(C)c2=O)cn1 [I-88, 6-tert-Butyl-8-fluoro-2-(2-hydroxymethyl-3-{1-methyl-5-[5((1S,4S)-5-methyl-2,5-diaza-bicyclo[2.2.1]hept-2-yl)-pyrazin-2-ylamino]-6-oxo-1,6-dihydro-pyridazin-3-yl}-phenyl)-2H-phthalazin-1-one] | –
